Data set [1] relates to PTZ-induced kindling, mice. The experiment in a line: PTZ-induced kindling model. Type of data set: in vivo, mouse. The protocol:
We investigated the impact of lead compound (R)-32 on PTZ-induced kindling in mice to further assess its antiseizure potential (Figure 3). […] The PTZ-induced kindling model is widely recognized as a useful method to induce chronic increase in susceptibility to epileptic seizures.
Figure 3 Effect of repeated treatment with (R)-32 in PTZ-induced kindling model in mice. […] Data are presented as means of seizure severity (n = 10–15 animals). Statistical significance was evaluated by a mixed effects model for repeated measures followed by Tukey’s post hoc test: **p < 0.01, […] vs control group (GraphPad Prism 8.4.3).
The procedure was performed as described in detail in our previous studies.[88],[89] […] Seizures were induced three times a week by i.p. administration of PTZ at a subconvulsive dose of 40 mg/kg. […] The seizure severity was scored using the modified Racine’s scale. […] The locomotor activity test, the elevated plus maze test, and the FST were performed 24 h after the last PTZ injection, according to the methods described in detail elsewhere. After completion of behavioral tests, animals were sacrificed. Hippocampi and cortices were dissected from the brains, frozen, and stored at −80 °C until assay. Following each PTZ injection, the mean seizure severity scores were determined for each experimental group. A mixed effects model for repeated measurements was used for analysis, along with Tukey’s post hoc test. The percentage of fully kindled mice was compared using Fisher’s exact probability test.

For data set [2], the system named is glutamate and GABA concentrations in brain. The experiment in a line: glutamate and GABA concentrations in hippocampus and cortex of PTZ-kindled mice. Type of data set: in vivo, mouse. The source says:
After behavioral tests (FST, PTZ-induced kindling), we determined the changes in glutamate and GABA concentrations in the hippocampus and cortex. Since exposure to the FST can evoke various neurochemical alterations, two additional groups were employed in this experiment, i.e., control nonkindled mice that were exposed to the FST and naïve mice. No marked differences in both glutamate and GABA concentrations in the hippocampus were observed (Figure 5A). […] We found a significant increase in glutamate concentration in the cortex of mice subjected to the FST (p < 0.05 vs naive mice). […] Given that seizures are typically accompanied by elevated extracellular glutamate levels (an excitatory neurotransmitter), a decreased glutamate concentration in the cortex of kindled animals may appear to be an unexpected outcome. It should be highlighted, however, that the concentrations of glutamate and GABA in tissue homogenates rather than dialysate were measured in brain samples acquired 24 h following the previous PTZ dose, which may have an impact on the outcomes. On the other hand, decreased glutamate levels could be caused by the up-regulation of glutamate transporters, as the expression of glutamate transporters can increase following seizures.[48] For example, an increased expression of hippocampal GLT-1 was observed 24 h after kainic acid-induced status epilepticus in mice and PTZ-induced kindling in rats.[49] Moreover, similar to our findings, Szyndler et al.([50]) found decreased glutamate concentrations, with no changes in GABA concentrations, in homogenates of the hippocampus, striatum, and prefrontal cortex of PTZ-kindled rats.
Figure 5 Changes in glutamate and GABA concentrations in the hippocampus (A) and cortex (B). Data are shown as means + SD (n = 9–14 animals). Statistical significance was evaluated by one-way ANOVA followed by Tukey’s post hoc test: *p < 0.05, **p < 0.01, ***p < 0.001 (GraphPad Prism 8.4.3).
GABA and glutamate concentrations were determined using liquid chromatography tandem mass spectrometry (LC-MS/MS) in the mouse prefrontal cortex and hippocampus. Toronto Research Chemicals Inc. was the source of the standards for both analytes (Toronto, ON, Canada). GABA and glutamate stock standard solutions were made in methanol and deionized water, respectively, and kept cold at 4 °C. The stock solutions were suitably diluted to create a range of solution combinations with the appropriate concentrations. Prior to analysis, a hand-held pestle and glass tube homogenizer (Potter–Elvehjem PTFE pestle and glass tube, Sigma-Aldrich, St. Louis, MO, USA) were used to homogenize mouse brains in distilled water at a ratio of 50 μL/mg. Following a 10 min centrifugation at 8000g for 10 min at 4 °C, homogenates were diluted 10 times with 0.1% formic acid in MeCN from the supernatant. Samples (10 μL) were deproteinized with 80 μL of 0.1% formic acid in MeCN by shaking for 10 min (IKA Vibrax VXR, IKA Werke GmbH & Co. KG, Staufen im Breisgau, Germany) and centrifuged for 5 min at the speed of 8000g (Eppendorf miniSpin centrifuge) after isotope-labeled GABA-d6 and glutamate-d5 (Toronto Research Chemicals Inc., Toronto, ON, Canada) were added as internal standards (10 μL at the concentration of 500 ng/mL). The autosampler vials were filled with the acquired supernatants. […]

Data set [3] in a line: PAMPA (Precoated PAMPA Plate System Gentest) passive permeability. Type of data set: in vitro ADME. On the technique in general: In PAMPA a lipid-coated filter parts donor from acceptor wells.
Data set [4] concerns HepG2 cell line. The experiment in a line: hepatotoxicity, HepG2 cell viability. Type of data set: cell-based, human. Conditions: 25 μM, 72 h of incubation (Figure 11).
Description: The hepatotoxicity potential was assessed with the HepG2 cell line and the reference cytostatic drug doxorubicin.
The results are presented as means + SD. Statistical significance was evaluated by one-way ANOVA, followed by Bonferroni’s multiple comparison post hoc test (Graph Pad Prism 8.0.1 software, San Diego, CA, USA): *p < 0.05, ***p < 0.001, ****p < 0.0001 vs negative control (DMSO 1% in growth media).

On to `CC(=O)N[C@@H](C(=O)N1CCN(c2cccc(C(F)(F)F)c2)CC1)c1ccccc1` [(R)-31, (R)-N-(2-Oxo-1-phenyl-2-(4-(3-(trifluoromethyl)phenyl)piperazin-1-yl)ethyl)acetamide], for which the melting point (as a rule, the temperature, or range, at which the solid turns liquid) fell in the range of 112.9 to 113.5 °C.
Take `CC(=O)N[C@@H](C(=O)N1CCN(c2cccc(OC(F)(F)F)c2)CC1)c1ccccc1` [(R)-32, (R)-N-(2-Oxo-1-phenyl-2-(4-(3-(trifluoromethoxy)phenyl)piperazin-1-yl)ethyl)acetamide]: the “effect on kindling development” value in data set [1] (20 mg/kg i.p. repeatedly every 24 h) and in data set [1] (40 mg/kg i.p. repeatedly every 24 h) was “did not significantly affect kindling development” each time. The “effect on kindling progression” value in data set [1] (80 mg/kg i.p. repeatedly, p < 0.01 after 19th PTZ injection) was “slightly suppressed kindling progression”. In data set [1] (80 mg/kg, mean ± SD), the “average seizure severity score after the first PTZ injection” value amounted to 0.87 ± 0.35. In addition, the “average seizure severity score after the last PTZ injection” value in data set [1] (80 mg/kg, mean ± SD) is 2.65 ± 1.28. Besides, in data set [2] (80 mg/kg, p < 0.001 vs PTZ-kindled control group), the “GABA concentration in the cortex” value is “significantly decreased”. In data set [2] (80 mg/kg, p < 0.01 vs PTZ-kindled control group), the “glutamate concentration in the cortex (PTZ-kindling-induced decrease)” value is given as “reversed this effect”. Besides, in data set [2] (vs nonkindled FST control group), the “glutamate concentration in the hippocampus” value was “slight decrease”. Besides, the “Pe relative to that of caffeine” value in data set [3] is “approximately 70%”. Moreover, in data set [3] (passive blood–brain barrier permeability model, read-out: permeability coefficient (Pe)), the Papp worked out at 2.42 ×10⁻⁶ cm/s.
For `CC(=O)N[C@@H](C(=O)N1CCN(c2cccc(SC(F)(F)F)c2)CC1)c1ccccc1` [(R)-33, (R)-N-(2-Oxo-1-phenyl-2-(4-(3-((trifluoromethyl)thio)phenyl)piperazin-1-yl)ethyl)acetamide], the HepG2 cell viability entry in data set [4] is on record as “reduced slightly, but statistically significant cell viability”.

(Values after article PMC11378297, “Discovery and Profiling of New Multimodal Phenylglycinamide Derivatives as Potent Antiseizure and Antinociceptive Drug Candidates” (ACS Chemical Neuroscience, 2024).)
